Assay results from patent US12577206B2 (BRISTOL-MYERS SQUIBB COMPANY, priority 2020, dated 2026).

Experiments:
human FPR1 = target: T1, human FPR1 (Homo sapiens, UniProt P21462); experiment: FPR1 cyclic adenosine monophosphate (cAMP) assay; assay type: cell-based; conditions: CHO cells overexpressing human FPR1; forskolin 10 μM; inhibition of cAMP production; HTRF; read-out: hFPR1 cAMP2 EC50
T1 sequence (P21462 1-350): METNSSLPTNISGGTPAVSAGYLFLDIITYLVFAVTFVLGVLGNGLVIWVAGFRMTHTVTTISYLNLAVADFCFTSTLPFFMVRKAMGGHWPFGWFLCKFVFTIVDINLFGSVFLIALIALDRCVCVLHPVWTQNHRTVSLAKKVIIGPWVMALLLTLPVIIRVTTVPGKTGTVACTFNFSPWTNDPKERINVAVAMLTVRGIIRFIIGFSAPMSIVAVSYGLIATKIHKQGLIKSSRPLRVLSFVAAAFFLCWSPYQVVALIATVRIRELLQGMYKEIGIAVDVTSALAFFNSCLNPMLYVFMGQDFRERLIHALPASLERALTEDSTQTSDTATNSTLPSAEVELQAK
How it was run: (§1)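 CHO/hFPR1 4,000 cells/well, forskolin 10 μM final; CHO/hFPR2 2,000 cells/well, forskolin 5 μM final. IBMX 200 μM, DMSO 1%, DPBS + Ca/Mg + 0.1% BSA, 30 min rt. HTRF cAMP; 4-PL fit.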

human FPR2 = target: T2, human FPR2 (Homo sapiens, UniProt P25090); experiment: FPR2 cyclic adenosine monophosphate (cAMP) assay; assay type: cell-based; conditions: CHO cells overexpressing human FPR2; forskolin 5 μM; inhibition of cAMP production; HTRF; read-out: hFPR2 cAMP2 EC50
T2 sequence (P25090 1-351): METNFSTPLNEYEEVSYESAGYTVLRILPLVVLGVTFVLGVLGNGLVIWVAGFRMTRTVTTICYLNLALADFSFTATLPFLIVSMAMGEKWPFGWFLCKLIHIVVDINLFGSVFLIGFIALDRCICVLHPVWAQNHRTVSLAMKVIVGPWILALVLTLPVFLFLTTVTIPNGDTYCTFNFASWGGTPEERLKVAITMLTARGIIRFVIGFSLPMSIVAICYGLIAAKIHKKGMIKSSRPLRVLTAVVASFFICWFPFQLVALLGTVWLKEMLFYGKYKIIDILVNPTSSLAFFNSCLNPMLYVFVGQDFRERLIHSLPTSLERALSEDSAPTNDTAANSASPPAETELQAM
How it was run: as §1

Structure (SMILES) | EC50 (human FPR1) [nM] | EC50 (human FPR2) [nM]
CC(C)Oc1cc(OCCO)nc(-n2c(=O)c(NC(=O)c3ccc(OC(F)F)cc3)c(-c3c(F)cc(Cl)cc3F)n2C)c1 [Example 399, N-(5-(4-chloro-2,6-difluorophenyl)-2-(6-(2-hydroxyethoxy)-4-isopropoxypyridin-2-yl)-1-methyl-3-oxo-2,3-dihydro-1H-pyrazol-4-yl)-4-(difluoromethoxy)benzamide] | 550 | 11
Cc1cc(OCC(C)(C)O)nc(-n2c(=O)c(NC(=O)c3ccc(OC(F)F)cc3)c(-c3c(F)cc(OC(F)F)cc3F)n2C)c1 [Example 400, 4-(difluoromethoxy)-N-(5-(4-(difluoromethoxy)-2,6-difluorophenyl)-2-(6-(2-hydroxy-2-methylpropoxy)-4-methylpyridin-2-yl)-1-methyl-3-oxo-2,3-dihydro-1H-pyrazol-4-yl)benzamide] | > 10000 | 57
Cn1c(-c2c(F)cc(C(F)(F)F)cc2F)c(NC(=O)c2ccc(OC(F)F)cc2)c(=O)n1-c1cccc(C(C)(C)O)n1 [Example 401, N-(5-(2,6-difluoro-4-(trifluoromethyl)phenyl)-2-(6-(2-hydroxypropan-2-yl)pyridin-2-yl)-1-methyl-3-oxo-2,3-dihydro-1H-pyrazol-4-yl)-4-(difluoromethoxy)benzamide] | 1800 | 103
[2H]C([2H])([2H])Oc1cc(F)c(-c2c(NC(=O)c3ccc(OC(F)(F)F)cc3)c(=O)n(-c3cc(C(F)(F)F)ccn3)n2C)c(F)c1 [Example 402, N-(5-(2,6-difluoro-4-(methoxy-d3)phenyl)-1-methyl-3-oxo-2-(4-(trifluoromethyl)pyridin-2-yl)-2,3-dihydro-1H-pyrazol-4-yl)-4-(trifluoromethoxy)benzamide] | > 10000 | 5
CCc1cc(F)c(-c2c(NC(=O)c3ccc(OC(F)(F)F)cc3)c(=O)n(-c3cccc(C(C)(C)O)n3)n2C)c(F)c1 [Example 403, N-(5-(4-ethyl-2,6-difluorophenyl)-2-(6-(2-hydroxypropan-2-yl)pyridin-2-yl)-1-methyl-3-oxo-2,3-dihydro-1H-pyrazol-4-yl)-4-(trifluoromethoxy)benzamide] | 1700 | 6
[2H]C([2H])([2H])Oc1cc(F)c(-c2c(NC(=O)c3ccc(OC(F)F)cc3)c(=O)n(-c3cccc(C(C)(C)O)n3)n2C)c(F)c1 [Example 404, N-(5-(2,6-difluoro-4-(methoxy-d3)phenyl)-2-(6-(2-hydroxypropan-2-yl)pyridin-2-yl)-1-methyl-3-oxo-2,3-dihydro-1H-pyrazol-4-yl)-4-(difluoromethoxy)benzamide] | 1500 | 7
[2H]C([2H])([2H])Oc1cc(F)c(-c2c(NC(=O)c3ccc(OC(F)(F)F)cc3)c(=O)n(-c3cccc(C(C)(C)O)n3)n2C)c(F)c1 [Example 405, N-(5-(2,6-difluoro-4-(methoxy-d3)phenyl)-2-(6-(2-hydroxypropan-2-yl)pyridin-2-yl)-1-methyl-3-oxo-2,3-dihydro-1H-pyrazol-4-yl)-4-(trifluoromethoxy)benzamide] | 390 | 8
Cn1c(-c2c(F)cc(Cl)cc2F)c(NC(=O)c2ccc(OC(F)(F)F)cc2)c(=O)n1-c1cccc(C(C)(C)O)n1 [Example 406, N-(5-(4-chloro-2,6-difluorophenyl)-2-(6-(2-hydroxypropan-2-yl)pyridin-2-yl)-1-methyl-3-oxo-2,3-dihydro-1H-pyrazol-4-yl)-4-(trifluoromethoxy)benzamide] | 1600 | 12
Cn1c(-c2c(F)cc(Cl)cc2F)c(NC(=O)c2ccc(OC(F)F)cc2)c(=O)n1-c1cccc(C(C)(C)O)n1 [Example 407] | > 10000 | 23
CC(C)Oc1cc(OCC(C)(C)O)nc(-n2c(=O)c(NC(=O)c3ccc(OC(F)(F)F)cc3)c(-c3c(F)cc(Cl)cc3F)n2C)c1 [Example 408, N-(5-(4-chloro-2,6-difluorophenyl)-2-(6-(2-hydroxy-2-methylpropoxy)-4-isopropoxypyridin-2-yl)-1-methyl-3-oxo-2,3-dihydro-1H-pyrazol-4-yl)-4-(trifluoromethoxy)benzamide] | 1100 | 7
